Source: patent US11358936B2, “Lysyl oxidase-like 2 inhibitors and uses thereof” (PharmAkea, Inc., priority 2015, dated 2022)
pIC50: −log10 of the molar value. Structures can show the parent of a compound that is named as a salt.

What follows are compounds tested against human LOXL2 (Homo sapiens (Human), UniProt Q9Y4K0) (assay: Human LOXL2 Amine Oxidase Activity Assay (Amplex Red fluorescence)). Settings: IC50, concentrated conditioned media from CHO cells stably expressing human LOXL2; 2 h at 37° C. preincubation; DAP substrate.
Format: biochemical
Description: LOXL2 amine oxidase activity is evaluated by measuring Amplex Red fluorescence using 10-20× concentrated conditioned media from CHO cells stably expressing human LOXL2. To assay for amine oxidase activity, 10 μL of the concentrated conditioned media is incubated with 2 μL of test compound in DMSO and 73 μL Assay Buffer (50 mM Borate Buffer, pH8) for 2 h at 37° C. After the 2 h incubation, 5 μl of 10 mM 1,5-Diaminopentane (DAP) diluted in Assay Buffer and 10 μl of Amplex Red Mix (8.5 μl Assay Buffer+0.5 μl of 10 mM Amplex Red+1 μl of 500 U/ml Horseradish Peroxidase) are added and the plate mixed and immediately placed on the FlexStaion for fluorescence measurements. Fluorescence is read in kinetic mode every 2 min for 1 hour at excitation=544 and emission=590. The amine oxidase activity is calculated from the slope of the linear portion of the curve.

Chain of human LOXL2 (Q9Y4K0 26-774): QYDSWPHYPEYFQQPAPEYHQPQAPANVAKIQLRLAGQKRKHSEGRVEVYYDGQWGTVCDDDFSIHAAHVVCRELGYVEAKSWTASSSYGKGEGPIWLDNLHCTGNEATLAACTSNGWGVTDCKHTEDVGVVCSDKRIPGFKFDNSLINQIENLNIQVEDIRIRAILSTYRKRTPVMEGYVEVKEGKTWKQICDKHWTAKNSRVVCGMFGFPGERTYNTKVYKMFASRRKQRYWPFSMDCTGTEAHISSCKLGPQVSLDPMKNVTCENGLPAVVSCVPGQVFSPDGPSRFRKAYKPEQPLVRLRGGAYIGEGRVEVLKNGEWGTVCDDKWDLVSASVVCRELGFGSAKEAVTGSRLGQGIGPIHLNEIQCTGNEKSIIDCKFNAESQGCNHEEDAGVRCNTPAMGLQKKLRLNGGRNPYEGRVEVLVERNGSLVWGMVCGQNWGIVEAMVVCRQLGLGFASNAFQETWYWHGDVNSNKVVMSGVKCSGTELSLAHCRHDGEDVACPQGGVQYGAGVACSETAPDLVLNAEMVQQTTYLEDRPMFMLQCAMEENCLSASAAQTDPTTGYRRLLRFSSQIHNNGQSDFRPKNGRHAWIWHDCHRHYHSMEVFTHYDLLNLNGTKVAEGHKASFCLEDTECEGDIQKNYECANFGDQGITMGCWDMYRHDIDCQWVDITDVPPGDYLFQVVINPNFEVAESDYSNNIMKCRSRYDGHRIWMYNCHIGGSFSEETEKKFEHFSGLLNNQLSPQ

Structure (SMILES)	pIC50
NCc1ccnc(NC(=O)CC(F)(F)F)c1 [Compound 4-14, trifluoroacetate]	6.00 to 6.52

Same assay, conditions: concentrated conditioned media from CHO cells stably expressing human LOXL2; 2 h at 37° C. preincubation; DAP substrate; read-out: IC50

Structure (SMILES)	pIC50
COc1ccc(CN2C(=O)CCc3c(Oc4cc(CN)ccn4)cccc32)cn1 [Compound 2-37, 5-((4-(Aminomethyl)pyridin-2-yl)oxy)-1-((6-methoxypyridin-3-yl)methyl)-3,4-dihydroquinolin-2(1H)-one acetate]	> 6.52
NCc1ccnc(O[C@H]2CCCN(C(=O)c3ccccc3)C2)c1 [Compound 2-38, (S)-(3-((4-(Aminomethyl)pyridin-2-yl)oxy)piperidin-1-yl)(phenyl)methanone trifluoroacetate]	> 6.52
NCc1ccnc(O[C@H]2CCCN(C(=O)Nc3ccccc3)C2)c1 [Compound 2-39, (A)-3-((4-(Aminomethyl)pyridin-2-yl)oxy)-N-phenylpiperidine-1-carboxamide trifluoroacetate]	> 6.52
Cc1ccc(C(=O)Nc2cc(CN)ccn2)c(F)c1 [Compound 2-42, N-(4-(Aminomethyl)pyridin-2-yl)-2-fluoro-4-methylbenzamide trifluoroacetate]	6.00 to 6.52
NCc1ccnc(NC(=O)Cc2ccc(Cl)c(Cl)c2)c1 [Compound 2-43, N-(4-(Aminomethyl)pyridin-2-yl)-2-(3,4-dichlorophenyl)acetamide trifluoroacetate]	6.00 to 6.52
CN(C)c1cc(CN)cc(Oc2cccc(Oc3ccccc3)c2)n1 [Compound 3-1, 4-(Aminomethyl)-N,N-dimethyl-6-(3-phenoxyphenoxy)pyridin-2-amine hydrochloride]	< 6.00
COCCNc1cc(CN)cc(Oc2cccc(Oc3ccccc3)c2)n1 [Compound 3-2, 4-(Aminomethyl)-N-(2-methoxyethyl)-6-(3-phenoxyphenoxy)pyridin-2-amine trifluoroacetate]	6.00 to 6.52
NCc1cc(Oc2cccc(Oc3ccccc3)c2)nc(-c2ccc(F)cc2)c1 [Compound 3-3, (2-(4-Fluorophenyl)-6-(3-phenoxyphenoxy)pyridin-4-yl)methanamine trifluoroacetate]	6.00 to 6.52
NCc1cccnc1F [Compound 4-1, 2-Fluoro-3-(aminomethyl)pyridine]	< 6.00
NCc1ccncc1F [Compound 4-2, 3-Fluoro-4-(aminomethyl)pyridine]	6.00 to 6.52
NCc1ccnc(F)c1 [Compound 4-3, 2-Fluoro-4-(aminomethyl)pyridine]	6.00 to 6.52
NCc1ccnc(Cl)c1 [Compound 4-5, 2-Chloro-4-(aminomethyl)pyridine]	> 6.52
NCc1ccnc(OCc2ccccc2)c1 [Compound 4-6, 2-Benzyloxy-4-(aminomethyl)pyridine]	< 6.00
NCc1ccnc(OC2CCCCC2)c1 [Compound 4-7, 2-Cyclohexyloxy-4-(aminomethyl)pyridine]	> 6.52
NCc1ccnc(Oc2ccc(F)cc2)c1 [Compound 4-8, 2-(4-Fluorophenoxy)-4-(aminomethyl)pyridine]	> 6.52
NCc1ccnc(Oc2ccccc2C(F)(F)F)c1 [Compound 4-9, 2-(2-Trifluoromethylphenoxy)-4-(aminomethyl)pyridine]	> 6.52
NCc1ccnc(N2CCCC2)c1 [Compound 4-10, 2-(1-Pyrrolidino)-4-(aminomethyl)pyridine]	< 6.00
NCc1ccnc(-n2ccnc2)c1 [Compound 4-11, 2-(Imidazol-1-yl)-4-(aminomethyl)pyridine]	> 6.52
CCN1CCN(c2cc(CN)ccn2)CC1 [Compound 4-12, 2-(4-Ethylpiperazin-1-yl)-4-(aminomethyl)pyridine]	< 6.00
COCCNC(=O)c1cc(CN)ccn1 [Compound 4-13, 4-(Aminomethyl)-N-(2-methoxyethyl)picolinamide hydrochloride]	> 6.52
